Tested on: Aqueous solubility in PBS, percent remaining
Assay: qHTS Assay for Inhibitors of Bacillus subtilis Sfp phosphopantetheinyl transferase (PPTase): Aqueous Solubility in PBS
Conditions: active compounds read high
Excerpt: The covalent attachment of a phosphopantetheinyl (4'-PP) arm to a variety of synthases and other proteins is a key posttranslational protein modification. The 4'-PP is installed on the proteins post-translationally from coenzyme A (CoA) on a conserved serine residue by action of phosphopantetheinyl transferase (PPTase) enzymes. Phosphopantetheinylation is essential for synthase activity, and removal of the PPTase gene precludes natural product synthesis in microorganisms, or in the case of fatty acid biosynthesis, renders the organism unviable. PPTase enzymes belong to a distinct structural superfamily. Within bacteria, these enzymes are grouped into two classes based upon primary structure, the AcpS-Type and Sfp-Type PPTases.
Sfp-type PPTases, corresponding to an activator of surfactin production in Bacillus subtilis, are responsible for modifying type I polyketide and nonribosomal peptide synthases of prokaryotes. Sfp-type PPTases are responsible for the activation of a variety of pathogen-associated virulence factors. […]
2microM of compound is incubated in PBS buffer at pH 7; the reference compound is procaine. Compounds are incubated at 37 deg C for the pre-determined time periods and the when aliquots are removed. Samples are analyzed with LC-MS/MS.

solubility, percent remaining: 100%
SMILES: COc1ccnc(NC(=S)N2CCN(c3ncc(C(F)(F)F)cc3Cl)CC2)c1

— PubChem BioAssay AID624112 (National Center for Advancing Translational Sciences (NCATS), 2012)
